Source: PMC10876507, “Chelator impact: investigating the pharmacokinetic behavior of copper-64 labeled PD-L1 radioligands” (EJNMMI Radiopharmacy and Chemistry, 2024)
Several values for one entry are separate records, joined by “and”; a condition that tells them apart may be missing. Equal entries are not always repeated.

Key:
[1] = test system: PC3 PD-L1 overexpressing and PD-L1-mock tumors; assay: PET imaging in NMRI-nude mice bearing PC3 PD-L1 and PC3 mock tumors; type: in vivo; conditions: for reduction of PD-L1 positive tumor uptake under blocking conditions / reduction of liver uptake under blocking conditions / contrast of PD-L1 positive tumor SUVmax over mock tumor: 1–2 h p.i.; for reduction of PD-L1 positive tumor uptake under blocking conditions / reduction of liver uptake under blocking conditions: 500 nmol unlabeled compound; for contrast of PD-L1 positive tumor SUVmax over mock tumor: percent higher than mock tumor; for excretion pattern / clearance route in PET / SUVmax PC3 PD-L1 tumor, blocking / SUVmax PC3 mock tumor, blocking / SUVmax kidney, blocking / SUVmax liver, blocking / SUVmax PC3 PD-L1 tumor / SUVmax PC3 mock tumor / SUVmax kidney / SUVmax liver: mice; for excretion pattern / clearance route in PET: PET 0–25 h p.i.; for SUVmax PC3 PD-L1 tumor / SUVmax PC3 mock tumor / SUVmax kidney / SUVmax liver: tracer only, i.v.
Method: Male athymic NMRI-nude mice (Rj:NMRI-Foxn1nu, Janvier Labs, Le Genest-Saint-Isle, France) aged between 8 to 16 weeks were employed for the study. General anesthesia was induced [~ 10% desflurane (Baxter, Deerfield, IL, USA) in 30 vol% oxygen + air] under controlled warming (37°C), and mice were subcutaneously injected with 3–5 × 10^6 PC3 PD-L1 and PC3 mock cells (in 50 µL PBS + 50 µL Matrigel, Corning, Glendale, CA, USA) into the right and left thigh, respectively. The growth of tumors was systematically monitored three times per week through caliper measurements, and animals with tumor sizes above 7 mm were included in the subsequent experiments.
PET and X-ray computed tomography (CT) scans were conducted under general anesthesia using a small animal nanoScan PET/CT scanner (Mediso, Budapest, Hungary), capable of imaging four animals simultaneously. CT images served attenuation correction and anatomical referencing. A total of three individual scans were conducted, corresponding to the timeframes of 0–2 h (dynamic reconstruction), 4–5 h, and 24–25 h (one frame reconstruction) after injection.
The PD-L1 radiotracer candidates (in 300 µL sterile 0.9% NaCl/HEPES buffer, pH 6–7, containing between 7 and 12 MBq, with molar activities exceeding 12 GBq/µmol) were intravenously delivered over 30 s through a catheter in the lateral tail vein. The PET acquisition was initiated simultaneously with the administration.
The acquired three-dimensional list mode data were sorted and binned within a 400–600 keV energy window, forming […] (15 × 10 s, 5 × 30 s, 5 × 60 s, 4 × 300 s, 3 × 600 s, 3 × 1200 s). Reconstruction of the time frames was accomplished using the Tera-TomoTM 3D algorithm, utilizing a voxel size of 0.4 mm and applying corrections for decay, scatter, and attenuation. The images were subjected to post-processing and analysis using Rover software (ABX GmbH, Radeberg, Germany), and were depicted as maximum intensity projections (MIPs) at the specified timepoints and scaling.
Three-dimensional volumes of interest were defined using fixed thresholding at 35–40% of the maximal measured intensity. Standardized uptake values (SUV = [MBq detected activity/mL tissue] / [MBq injected activity/g body weight], in mL/g) were then calculated within the selected volumes of interest, encompassing PD-L1 and mock tumors, as well as metabolizing organs.

PD-L1 = PD-L1 (Homo sapiens, UniProt Q9NZQ7); assay: Saturation binding assay on human PD-L1 transduced PC3 cells (assay buffer with 2.5% BSA); design: expressed in transfected cells; host or cells: PC3 cells transduced with human PD-L1 (PC3-PD-L1); conditions: for Kd: human PD-L1 transduced PC3 cells, on ice 90 min, PBS + 2.5% w/v BSA; for Bmax: saturation binding, pmol/mg protein, PC3 PD-L1 cells
[2] = Proteolytic stability in human serum at 37 °C, radio-HPLC; type: in vitro ADME; conditions: 48 h
Method: For proteolytic stability studies, a solution of the radiolabeled compound was diluted with human serum in a ratio of 1:10. This mixture then underwent incubation at 37 °C while being shaken at 300 rpm. At each designated timepoint (1, 24 and 48 h), an aliquot was withdrawn and added to a detergent solution (water with 20% v/v EtOH, 5% v/v 5 mM aqueous EDTA, 0.5% v/v Triton X-100, 0.1% m/v saponin, 0.05% v/v 0.5 mM aqueous o-phenanthroline) in a ratio of 1:2 for precipitation of serum proteins. The mixture was cooled on ice for 5 min, followed by centrifugation at 12,000 g for 5 min. A minor portion of the resulting supernatant was subjected to analytical radio-HPLC (reversed-phase, Phenomenex Jupiter 300 C-18, 5 µm, 4.6 × 250 mm) with 10–95% acetonitrile (0.1% TFA) in water (0.1% TFA) in a linear gradient over 15 min, 1 mL/min, γ-detection). The assessment and graphical representations were performed using OriginPro® 9.0.

[3] = test system: PC3 PD-L1 and PC3 mock cells; assay: In vitro cell uptake in PC3 PD-L1 and PC3 mock cells; type: cell-based, human; conditions: for incubation time at which cell uptake plateaued: PC3 cells, incubation 30–240 min at or close to KD; for uptake/binding to PC3 PD-L1-positive cells vs PC3 mock cells: mixed-effects model, main effect of cell type
Method: Both the target-positive (PC3 PD-L1) and negative cells (PC3 mock) were seeded at ~60,000 cells per well two days prior to the experiment. At the time of experiment, cells were then incubated with the respective radioligand at or close to the KD (determined by saturation binding) in binding buffer. For each timepoint and radiotracer (30, 60, 120 and 240 min), a single plate was used (with triplicate measurements). Additional controls per plate included plastic retention, nonspecific binding [excess of unlabeled BMS-1166 (in DMSO, resulting in 0.03% v/v) for both PC3 PD-L1 and PC3 mock] and cells incubated with PBS only (protein control). Following incubation, cells were washed twice in ice-cold binding buffer, lysed in 500 μL of 0.1 M NaOH + 1% SDS and radioactivity was measured in a gamma counter (Perkin Elmer Wizard 1480) and decay corrected to a reference time (end of radiolabeling).
Protein content was determined for each timepoint and cell type by BCA assay.
Figure S27: Cell uptake (fmol/mg protein) of [64Cu]Cu-14&16 into either PC3 PD-L1 or PC3 mock cells. Uptake of both […]
effects model. Binding to PC3 mock cells is similar to that of PC3 PD-L1 and PC3 mock cells blocked with an excess of […]

[4] = tracer +500 nM respective unlabeled compound (injected 5 min prior), 1-2 hour p.i.
[5] = tracer +500 nM respective unlabeled compound, 1-2 hour p.i.
[6] = tracer +500 nM respective unlabeled compound, 4-5 hour p.i.
[7] = tracer +500 nM respective unlabeled compound, 24-25 hour p.i.
[8] = 1-2 hour p.i., listed as [64Cu]Cu-14
[9] = 4-5 hour p.i., listed as [64Cu]Cu-14
[10] = 1-2 hour p.i., listed as [64Cu]Cu-16

Chain of PD-L1 (Q9NZQ7 19-290): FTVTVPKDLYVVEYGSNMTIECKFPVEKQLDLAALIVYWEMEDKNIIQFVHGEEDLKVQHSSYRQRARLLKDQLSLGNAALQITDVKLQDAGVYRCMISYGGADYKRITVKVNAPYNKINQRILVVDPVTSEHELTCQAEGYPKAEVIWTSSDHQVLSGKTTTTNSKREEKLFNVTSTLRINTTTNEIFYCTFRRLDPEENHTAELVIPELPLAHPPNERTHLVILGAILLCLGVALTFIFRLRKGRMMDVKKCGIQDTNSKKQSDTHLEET

With Cc1c(COc2cc(OCc3cncc(S(C)(=O)=O)c3)c(CN[C@@H](CS(=O)(=O)O)C(=O)NCCS(=O)(=O)O)cc2Br)cccc1-c1cccc(OCc2cn(CCCN3CCN(C(=O)[C@H](CS(=O)(=O)O)NC(=O)CC[C@H](C(=O)[O-])N4CCN(CC(=O)[O-])CCN(CC(=O)[O-])CC4)CC3)nn2)c1C.[64Cu+2] [[^64Cu]Cu-14] the “reduction of PD-L1 positive tumor uptake under blocking conditions” value [1] was 13%, the “reduction of liver uptake under blocking conditions” value [1] was 63% and the “contrast of PD-L1 positive tumor SUVmax over mock tumor” value [1] was 99%. The “excretion pattern / clearance route in PET” value [1] was “favorable renal clearance”, the “SUVmax PC3 PD-L1 tumor, blocking” value [1, 4] was 1.48 ± 0.44 and the “SUVmax PC3 PD-L1 tumor, blocking” value ([1]; tracer +500 nM respective unlabeled compound (injected 5 min prior), 1-2 hour p.i., listed as [64Cu]Cu-14) was 1.48. The “SUVmax PC3 mock tumor, blocking” value [1, 5] was 1.19, the “SUVmax kidney, blocking” value [1, 5] was 32.81 and the “SUVmax liver, blocking” value [1, 5] was 1.25 ± 0.13. For the same molecule, the “SUVmax liver, blocking” value ([1]; tracer +500 nM respective unlabeled compound, 1-2 hour p.i., listed as [64Cu]Cu-14) was 1.25, the “SUVmax PC3 PD-L1 tumor, blocking” value [1, 6] was 0.78 and the “SUVmax PC3 mock tumor, blocking” value [1, 6] was 0.48. For the same molecule, the “SUVmax kidney, blocking” value [1, 6] was 0.88, the “SUVmax liver, blocking” value [1, 6] was 0.98 and the “SUVmax PC3 PD-L1 tumor, blocking” value [1, 7] was 1.53. The “SUVmax PC3 mock tumor, blocking” value [1, 7] was 1.05, the “SUVmax kidney, blocking” value [1, 7] was 0.44 and the “SUVmax liver, blocking” value [1, 7] was 0.99. For the same molecule, the “SUVmax PC3 PD-L1 tumor” value ([1]; 1-2 hour p.i.) was 1.71 ± 0.04, the “SUVmax PC3 mock tumor” value ([1]; 1-2 hour p.i.) was 0.86 ± 0.16 and the SUVmax kidney ([1]; 1-2 hour p.i.) was 22.8 ± 3.0. The SUVmax liver ([1]; 1-2 hour p.i.) was 3.41 ± 0.19, the “SUVmax PC3 PD-L1 tumor” value [1, 8] was 1.71 and the “SUVmax PC3 mock tumor” value [1, 8] was 0.86. The SUVmax kidney [1, 8] was 22.77, the SUVmax liver [1, 8] was 3.41 and the “SUVmax PC3 PD-L1 tumor” value ([1]; 4-5 hour p.i.) was 1.26. For the same molecule, the “SUVmax PC3 mock tumor” value ([1]; 4-5 hour p.i.) was 0.50, the SUVmax kidney ([1]; 4-5 hour p.i.) was 0.72 ± 0.24 and the SUVmax liver ([1]; 4-5 hour p.i.) was 1.54 ± 0.19. The SUVmax kidney [1, 9] was 0.72, the SUVmax liver [1, 9] was 1.54 and the “SUVmax PC3 PD-L1 tumor” value ([1]; 24-25 hour p.i.) was 1.52. For the same molecule, the “SUVmax PC3 mock tumor” value ([1]; 24-25 hour p.i.) was 1.49, the SUVmax kidney ([1]; 24-25 hour p.i.) was 0.63 and the SUVmax liver ([1]; 24-25 hour p.i.) was 1.41. The Kd (PD-L1) was 100 nM, the Bmax (PD-L1) was 2.40 pmol/mg and 2.40 ± 0.48 pmol/mg and the “intact radioligand after incubation in human serum” value [2] was “over 95%”. For the same molecule, the “incubation time at which cell uptake plateaued” value [3] was 60 min, the “incubation time at which cell uptake plateaued” value ([3]; listed as [64Cu]Cu-14) was at most 60 min and the “uptake/binding to PC3 PD-L1-positive cells vs PC3 mock cells” value ([3]; listed as [64Cu]Cu-14) was “significant main effect of target expression”.

In the case of Cc1c(COc2cc(OCc3cncc(S(C)(=O)=O)c3)c(CN[C@@H](CS(=O)(=O)O)C(=O)NCCS(=O)(=O)O)cc2Br)cccc1-c1cccc(OCc2cn(CCCN3CCN(C(=O)[C@H](CS(=O)(=O)O)NC(=O)CCCC(=O)NC45CNCCNCC(N)(CNCCNC4)CNCCNC5)CC3)nn2)c1C.[64Cu+2] [[^64Cu]Cu-16], the “reduction of PD-L1 positive tumor uptake under blocking conditions” value [1] is reported as 10%, the “reduction of liver uptake under blocking conditions” value [1] is reported as 74% and the “contrast of PD-L1 positive tumor SUVmax over mock tumor” value [1] is reported as 107%. For the same molecule, the “excretion pattern / clearance route in PET” value [1] was “clearance via the renal pathway”, the “SUVmax PC3 PD-L1 tumor, blocking” value [1, 4] was 1.45 ± 0.06 and the “SUVmax PC3 PD-L1 tumor, blocking” value ([1]; tracer +500 nM respective unlabeled compound (injected 5 min prior), 1-2 hour p.i., listed as [64Cu]Cu-16) was 1.45. For the same molecule, the “SUVmax PC3 mock tumor, blocking” value [1, 5] was 0.90, the “SUVmax kidney, blocking” value [1, 5] was 7.93 and the “SUVmax liver, blocking” value [1, 5] was 1.13 ± 0.04. The “SUVmax liver, blocking” value ([1]; tracer +500 nM respective unlabeled compound, 1-2 hour p.i., listed as [64Cu]Cu-16) was 1.13, the “SUVmax PC3 PD-L1 tumor, blocking” value [1, 6] was 0.68 and the “SUVmax PC3 mock tumor, blocking” value [1, 6] was 0.54. The “SUVmax kidney, blocking” value [1, 6] was 1.28, the “SUVmax liver, blocking” value [1, 6] was 0.84 and the “SUVmax PC3 PD-L1 tumor, blocking” value [1, 7] was 1.14. The “SUVmax PC3 mock tumor, blocking” value [1, 7] was 1.01, the “SUVmax kidney, blocking” value [1, 7] was 1.02 and the “SUVmax liver, blocking” value [1, 7] was 0.85. The “SUVmax PC3 PD-L1 tumor” value ([1]; 1-2 hour p.i.) was 1.61 ± 0.93, the “SUVmax PC3 mock tumor” value ([1]; 1-2 hour p.i.) was 0.78 ± 0.36 and the SUVmax kidney ([1]; 1-2 hour p.i.) was 16.2 ± 15.5. The SUVmax liver ([1]; 1-2 hour p.i.) was 4.32 ± 0.02, the “SUVmax PC3 PD-L1 tumor” value [1, 10] was 1.61 and the “SUVmax PC3 mock tumor” value [1, 10] was 0.78. The SUVmax kidney [1, 10] was 16.18, the SUVmax liver [1, 10] was 4.32 and the “SUVmax PC3 PD-L1 tumor” value ([1]; 4-5 hour p.i.) was 0.89. The “SUVmax PC3 mock tumor” value ([1]; 4-5 hour p.i.) was 0.37, the SUVmax kidney ([1]; 4-5 hour p.i.) was 1.37 and the SUVmax liver ([1]; 4-5 hour p.i.) was 2.49. For the same molecule, the “SUVmax PC3 PD-L1 tumor” value ([1]; 24-25 hour p.i.) was 1.47, the “SUVmax PC3 mock tumor” value ([1]; 24-25 hour p.i.) was 0.87 and the SUVmax kidney ([1]; 24-25 hour p.i.) was 0.90. For the same molecule, the SUVmax liver ([1]; 24-25 hour p.i.) was 1.77 ± 0.08, the SUVmax liver ([1]; 24-25 hour p.i., listed as [64Cu]Cu-16) was 1.77 and the Kd (PD-L1) was 265 ± 12.5 nM. For the same molecule, the Bmax (PD-L1) was 3.30 pmol/mg and 3.30 ± 0.46 pmol/mg, the “intact radioligand after incubation in human serum” value [2] was 89% and the “uptake/binding to PC3 PD-L1-positive cells vs PC3 mock cells” value ([3]; listed as [64Cu]Cu-16) was “significant main effect of target expression”.
